Data as given in patent US11780832B2, “Lactivicin compounds, their preparation and use as antibacterial agents” (priority 2021, dated 2023).
In brackets after ≈: the same amount, converted by molar mass. Where two headings read alike, the source gives them in different places.

Columns and labels:
Type in all cases: cell-based
[1] = system: Klebsiella pneumoniae CMY-DHA; assay: MIC against CMY-DHA producing strains, compound alone; conditions: row r32
Protocol: (§1) Gram-negative and Gram-positive bacterial strains used during the in vitro minimum inhibitory concentration (MIC) determination were obtained either from the American Type Culture Collection (ATCC) or from clinical specimens. All strains were characterized genotypically and the respective antibiotic resistance markers for each strain were identified.
(§2) Isolates were sub-cultured onto appropriate media and stocked in skim milk at −80° C. Following two subcultures from frozen stock, in vitro antimicrobial susceptibility testing was performed using the Clinical and Laboratory Standards Institute (CLSI) broth microdilution method. Briefly, fresh cultures were suspended in culture media to give a final stock inoculum size of 5×10^7 colony forming units per milliliter of broth (CFU/mL). Test compounds were prepared at a stock solution concentration equal to 128 μg/mL, then diluted to give a final an initial working concentration of 32 μg/mL. 100 μL of the stock solutions were added to the first wells in a 96-well plate and were then diluted using a 2-fold dilution method to give a range of 32-0.025 μg/mL. 100 μL of the bacterial suspensions were then added to the 96-well plates to give a final working inoculum size of 5×10^5 CFU/mL. The final compound concentration range was 16-0.0125 μg/mL. […] MICs for comparator agents were determined using custom-designed, in-house prepared 96-well broth microdilution panels.

[2] = system: Proteus mirabilis CMY-DHA; assay: as above; conditions: row r36
Protocol: as §1, §2

Escherichia coli CMY-DHA = assay: as above
Protocol: as §1, §2

[3] = system: Enterobacter cloacae species complex Elevated AmpC; assay: Synergistic activity: MIC in the presence of Avibactam
Protocol: as §2
The same method used to test the activity of the claimed compounds was used to determine their synergistic activity when combined with a β-lactamase inhibitor except that either a fixed concentration or fixed ratio of a β-lactamase inhibitor was added to the 96-well plates prior to adding the bacteria cultures. Synergistic activity was defined as the reduction of MIC of a given compound when tested using the β-lactamase inhibitor versus testing the compound in the absence of a β-lactamase inhibitor.

[4] = system: Enterobacter cloacae species complex Elevated AmpC; assay: MIC against Elevated AmpC producing strains, compound alone
Protocol: as §1, §2

[5] = system: Escherichia coli Elevated AmpC; assay: as above
Protocol: as §1, §2

[6] = system: Citrobacter freundii species complex Elevated AmpC; assay: as above; conditions: row r16
Protocol: as §1, §2

Escherichia coli SHV-12 = assay: MIC, CLSI broth microdilution; conditions: SHV12
In short: (§3)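 Genotyped isolates from ATCC or clinical sources were subcultured twice from −80 °C skim-milk stocks, then tested by CLSI broth microdilution. Compounds were serially diluted 2-fold to a final 16-0.0125 μg/mL, with a final inoculum of 5×10^5 CFU/mL.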

[7] = system: Enterobacter cloacae species complex NDM-1; assay: MIC, CLSI broth microdilution
In short: as §3

[8] = system: Escherichia coli CTX-M-15; assay: MIC, CLSI broth microdilution; conditions: CTXM15
In short: as §3

[9] = system: Pseudomonas aeruginosa ATCC 27853; assay: MIC, CLSI broth microdilution; conditions: ATCC27853
In short: as §3

Escherichia coli CMY-2 = assay: MIC, CLSI broth microdilution; conditions: CMY2
In short: as §3

[10] = system: Klebsiella aerogenes VIM-1, SHV-12; assay: MIC, CLSI broth microdilution
In short: as §3

[11] = system: Serratia marcescens AmpC overexpressed; assay: MIC, CLSI broth microdilution
In short: as §3

[12] = system: Pseudomonas aeruginosa OprD negative; assay: MIC, CLSI broth microdilution
In short: as §3

[13] = system: Klebsiella pneumoniae OXA-163, OXA-1_OXA-30, SHV-1, TEM-1; assay: MIC, CLSI broth microdilution
In short: as §3

[14] = system: Serratia marcescens SME-2; assay: MIC, CLSI broth microdilution; conditions: SME2
In short: as §3

[15] = system: Klebsiella oxytoca KPC-2, TEM-1; assay: MIC, CLSI broth microdilution
In short: as §3

[16] = system: Klebsiella pneumoniae KPC-2; assay: MIC, CLSI broth microdilution; conditions: KPC2
In short: as §3

[17] = system: Acinetobacter baumannii ATCC 19606; assay: MIC, CLSI broth microdilution; conditions: ATCC19606
In short: as §3

[18] = system: Citrobacter freundii species complex OXA-181; assay: MIC, CLSI broth microdilution; conditions: Citrobacter freundii species complex, OXA-181; read-out: MIC
In short: as §3

[19] = system: Klebsiella pneumoniae SHV-12; assay: MIC, CLSI broth microdilution
In short: as §3

[20] = system: Klebsiella pneumoniae OXA-48, SHV-1; assay: MIC, CLSI broth microdilution
In short: as §3

[21] = system: Pseudomonas aeruginosa AmpC overexpressed; assay: MIC, CLSI broth microdilution
In short: as §3

[22] = system: Escherichia coli ATCC 25922; assay: MIC, CLSI broth microdilution; conditions: ATCC25922
In short: as §3

[23] = system: Klebsiella pneumoniae KPC-3; assay: MIC, CLSI broth microdilution
In short: as §3

[24] = in the presence of Avibactam @ 4 μg/mL
[25] = strain of row r7, in the presence of Avibactam @ 4 μg/mL
[26] = strain of row r20, in the presence of Avibactam @ 4 μg/mL

Nc1nc(/C(=N/OC2(C(=O)O)CC2)C(=O)N[C@H]2CON(C3(C(=O)O)C[C@H](N4Cc5cc(O)c(O)cc5C4=O)C(=O)O3)C2=O)cs1 (stereo partly drawn) [Cmpd 28, (4S)-2-[(4S)-4-{[(2Z)-2-(2-amino-1,3-thiazol-4-yl)-2-{[(1-carboxycyclopropyl)oxy]imino}acetyl]amino}-3-oxo-1,2-oxazolidin-2-yl]-4-(5,6-dihydroxy-1-oxo-1,3-dihydro-2H-isoindol-2-yl)-5-oxooxolane-2-carboxylic acid]
MIC [1]: 2 µg/mL (≈ 3.09 µM) | MIC [2]: 2 µg/mL (≈ 3.09 µM) | MIC (Escherichia coli CMY-DHA; strain of row r26): 4 µg/mL (≈ 6.19 µM) | MIC (Escherichia coli CMY-DHA; strain of row r27): 0.25 µg/mL (≈ 0.387 µM) | MIC (Escherichia coli CMY-DHA; strain of row r28): 0.5 µg/mL (≈ 0.773 µM) | MIC (Escherichia coli CMY-DHA; strain of row r29): 4 µg/mL (≈ 6.19 µM) | MIC (Escherichia coli CMY-DHA; strain of row r30): 1 µg/mL (≈ 1.55 µM) | MIC (Escherichia coli CMY-DHA; strain of row r31): 8 µg/mL (≈ 12.4 µM) | MIC (Escherichia coli CMY-DHA; strain of row r34): 1 µg/mL (≈ 1.55 µM) | MIC (Escherichia coli CMY-DHA; strain of row r35): 2 µg/mL (≈ 3.09 µM) | MIC [3, 24]: 0.25 µg/mL | MIC [3, 25]: 0.5 µg/mL | MIC [3, 26]: 0.015 µg/mL | MIC [4]: 2 µg/mL (≈ 3.09 µM) | MIC ([4]; strain of row r7): 8 µg/mL (≈ 12.4 µM) | MIC ([4]; strain of row r20): 1 µg/mL (≈ 1.55 µM) | MIC ([5]; strain of row r10): 0.06 µg/mL (≈ 0.0928 µM) | MIC ([5]; strain of row r11): 0.5 µg/mL (≈ 0.773 µM) | MIC ([5]; strain of row r12): 1 µg/mL (≈ 1.55 µM) | MIC ([5]; strain of row r13): 0.25 µg/mL (≈ 0.387 µM) | MIC ([5]; strain of row r14): 0.12 µg/mL (≈ 0.186 µM) | MIC ([5]; strain of row r15): 1 µg/mL (≈ 1.55 µM) | MIC [6]: 1 µg/mL (≈ 1.55 µM) | MIC (Escherichia coli SHV-12): 0.5 µg/mL (≈ 0.773 µM) | MIC [7]: 2 µg/mL (≈ 3.09 µM) | MIC [8]: 1 µg/mL (≈ 1.55 µM) | MIC [9]: 1 µg/mL (≈ 1.55 µM) | MIC (Escherichia coli CMY-2): 8 µg/mL (≈ 12.4 µM) | MIC [10]: 0.12 µg/mL (≈ 0.186 µM) | MIC [11]: 0.25 µg/mL (≈ 0.387 µM) | MIC [12]: 0.5 µg/mL (≈ 0.773 µM) | MIC [13]: 0.25 µg/mL (≈ 0.387 µM) | MIC [14]: 0.12 µg/mL (≈ 0.186 µM) | MIC ([15]; KPC-2, TEM-1, read-out: MIC): 0.0149 µg/mL (≈ 0.023 µM) | MIC [16]: 0.0149 µg/mL (≈ 0.023 µM) | MIC [17]: 0.12 µg/mL (≈ 0.186 µM) | MIC [18]: 0.12 µg/mL (≈ 0.186 µM) | MIC ([19]; SHV12, SHV-12, read-out: MIC): 0.06 µg/mL (≈ 0.0928 µM) | MIC [20]: 0.0149 µg/mL (≈ 0.023 µM) | MIC [21]: 2 µg/mL (≈ 3.09 µM) | MIC [22]: 0.25 µg/mL (≈ 0.387 µM) | MIC ([23]; KPC3, KPC-3, read-out: MIC): 0.25 µg/mL (≈ 0.387 µM)

Nc1nc(/C(=N/OC2(C(=O)O)CC2)C(=O)N[C@H]2CON(C3(C(=O)O)C[C@H](N4C(=O)c5cc(O)c(O)cc5C4=O)C(=O)O3)C2=O)cs1 (stereo partly drawn) [Cmpd 1, (4S)-2-[(4S)-4-{[(2Z)-2-(2-amino-1,3-thiazol-4-yl)-2-{[(1-carboxycyclopropyl)oxy]imino}acetyl]amino}-3-oxo-1,2-oxazolidin-2-yl]-4-(5,6-dihydroxy-1,3-dioxo-1,3-dihydro-2H-isoindol-2-yl)-5-oxooxolane-2-carboxylic acid]
MIC [1]: 1 µg/mL (≈ 1.51 µM) | MIC [2]: 2 µg/mL (≈ 3.03 µM) | MIC (Escherichia coli CMY-DHA; strain of row r26): 1 µg/mL (≈ 1.51 µM) | MIC (Escherichia coli CMY-DHA; strain of row r27): 0.06 µg/mL (≈ 0.0908 µM) | MIC (Escherichia coli CMY-DHA; strain of row r28): 0.25 µg/mL (≈ 0.378 µM) | MIC (Escherichia coli CMY-DHA; strain of row r29): 0.5 µg/mL (≈ 0.757 µM) | MIC (Escherichia coli CMY-DHA; strain of row r30): 0.5 µg/mL (≈ 0.757 µM) | MIC (Escherichia coli CMY-DHA; strain of row r31): 2 µg/mL (≈ 3.03 µM) | MIC (Escherichia coli CMY-DHA; strain of row r34): 0.25 µg/mL (≈ 0.378 µM) | MIC (Escherichia coli CMY-DHA; strain of row r35): 0.25 µg/mL (≈ 0.378 µM) | MIC [3, 24]: 0.06 µg/mL | MIC [3, 25]: 0.12 µg/mL | MIC [3, 26]: <=0.008 μg/mL | MIC [4]: 0.5 µg/mL (≈ 0.757 µM) | MIC ([4]; strain of row r7): 2 µg/mL (≈ 3.03 µM) | MIC ([4]; strain of row r20): 0.25 µg/mL (≈ 0.378 µM) | MIC ([5]; strain of row r10): 0.015 µg/mL (≈ 0.0227 µM) | MIC ([5]; strain of row r11): 0.25 µg/mL (≈ 0.378 µM) | MIC ([5]; strain of row r12): 0.5 µg/mL (≈ 0.757 µM) | MIC ([5]; strain of row r13): 0.06 µg/mL (≈ 0.0908 µM) | MIC ([5]; strain of row r14): 0.06 µg/mL (≈ 0.0908 µM) | MIC ([5]; strain of row r15): 0.12 µg/mL (≈ 0.182 µM) | MIC [6]: 0.5 µg/mL (≈ 0.757 µM) | MIC (Escherichia coli SHV-12): 0.5 µg/mL (≈ 0.757 µM) | MIC [7]: 0.12 µg/mL (≈ 0.182 µM) | MIC [8]: 1 µg/mL (≈ 1.51 µM) | MIC [9]: 0.12 µg/mL (≈ 0.182 µM) | MIC (Escherichia coli CMY-2): 1 µg/mL (≈ 1.51 µM) | MIC [10]: 0.5 µg/mL (≈ 0.757 µM) | MIC [11]: 0.12 µg/mL (≈ 0.182 µM) | MIC [12]: 0.12 µg/mL (≈ 0.182 µM) | MIC [13]: 0.06 µg/mL (≈ 0.0908 µM) | MIC [14]: 0.06 µg/mL (≈ 0.0908 µM) | MIC [15]: 0.0149 µg/mL (≈ 0.0226 µM) | MIC [16]: 0.12 µg/mL (≈ 0.182 µM) | MIC [17]: 0.03 µg/mL (≈ 0.0454 µM) | MIC [18]: 0.03 µg/mL (≈ 0.0454 µM) | MIC ([19]; SHV12): 0.0149 µg/mL (≈ 0.0226 µM) | MIC [20]: 0.0149 µg/mL (≈ 0.0226 µM) | MIC [21]: 0.5 µg/mL (≈ 0.757 µM) | MIC [22]: 0.06 µg/mL (≈ 0.0908 µM) | MIC ([23]; KPC3): 0.0149 µg/mL (≈ 0.0226 µM)
